Laboratory results taken from US10022449B2, “Synergistic antiviral composition and use thereof” (priority 2009, dated 2018).

How the values were obtained:
[1] = tested on: influenza A/PR/8/34 virus; assay: Survival of influenza-infected mice, iota-carrageenan and oseltamivir, treatment starting 48 hours post infection (Example 3); assay type: in vivo; conditions: treatment from 48 hours post infection, twice daily; oseltamivir 5 mg/kg/d orally; iota-carrageenan 1200 μg/ml i.n. (120 μg per day); 10 mice per group
Source text: (§1) 40 C57B16 mice were infected with a lethal dose (10× LD50) of influenza A/PR/8/34 virus by intranasal instillation (i.n.) without anaesthesia. After infection of the nasal cavity the virus spreads in the respiratory tract and finally causes a lethal pneumonia in mice. This model mimics the natural influenza infection in humans via the respiratory tract that sometimes causes severe conditions.
The infection of the mice was done as described in Example 1. The mice were divided into four groups of 10 mice each. 48 hours post infection the mice were treated twice daily i.n. without anaesthesia, wherein the first group was treated with a placebo (25 μl 0.5% aqueous NaCl-solution per nostril) as a negative control, the second group was treated orally with oseltamivir at a dosage of 5 mg/kg/d, the third group was treated with 25 μl per nostril of an aqueous iota-carrageenan polymer solution at a concentration of 1200 μg/ml, and the fourth group was treated with a combination of iota-carrageenan and oseltamivir twice daily, wherein oseltamivir was administered orally at a dosage of 5 mg/kg/d and the total amount of iota-carrageenan administered intranasally was 100 μl corresponding to an amount of 120 μg per day. The survival of the animals was determined daily as a surrogate parameter for health. The difference in the number of surviving animals was evaluated using a log-rank test.

influenza virus = conditions: cited from earlier work; for reduction of median time until detection of symptom alleviation: individuals of the YOPI group (young, old, pregnant, immunocompromised); for reduction of median time until detectable symptom alleviation: non-risk adults group (not YOPI)
[2] = tested on: influenza A/PR/8/34 virus; assay: Survival of mice infected with lethal influenza virus, treatment starting 48 hours post infection (Example 1); assay type: in vivo, C57B16 mice; conditions: lethal dose (10x LD50) i.n.; treatment from 48 hours post infection, twice daily; iota-carrageenan 1200 μg/ml 25 μl per nostril i.n.; TAMIFLU 10 mg/kg/d per os; 10 mice per group
Procedure: as §1
The mice were divided into four groups of 10 mice each. 48 hours post infection the mice were treated twice daily i.n. without anaesthesia, wherein the first group was treated with a placebo (25 μl 0.5% aqueous NaCl-solution per nostril) as a negative control and the second group was treated solely with 25 μl per nostril of a aqueous iota-carrageenan polymer solution at a concentration of 1200 μg/ml. Group three and four were fed with 10 mg/kg/d of TAMIFLU® per os, wherein the third group additionally received the iota-carrageenan polymer intranasally at the above concentration whereas the fourth group received the intranasal placebo treatment in addition to the oral Tamiflu® administration. […] The survival of the animals was determined daily as a surrogate parameter for health. The difference in the number of surviving animals was evaluated using a log-rank test.

[3] = tested on: influenza A/PR/8/34 virus; assay: Mean weight of mice infected with lethal influenza virus, treatment starting 24 hours post infection (Example 2); assay type: in vivo, C57B16 mice; conditions: treatment from 24 hours post infection; single actives: first seven days; combination: from day 3 onwards (pmax<0,004), t-test
[4] = cited from earlier work
[5] = tested on: influenza A/PR/8/34 virus; assay: Survival of influenza-infected mice, iota-/kappa-carrageenan and zanamivir, treatment starting 48 hours post infection (Example 4); assay type: in vivo; conditions: treatment from 48 hours post infection; zanamivir 0.5 mg/kg/d intranasally; carrageenan polymer 120 μg per day intranasally; 20 mice per group

| SMILES | survival of mice (survivors out of 10) [1] | reduction of median time until detection of symptom alleviation (influenza virus) | reduction of median time until detectable symptom alleviation (influenza virus) | survival of mice (survivors out of 10) [2] | weight loss compared to placebo treatment [3] | Tmax ([4]; in vivo) | absolute bioavailability ([4]; orally administered, on average) | survival of mice (survivors out of 20) [5] |
| --- | --- | --- | --- | --- | --- | --- | --- | --- |
| CCOC(=O)C1=C[C@@H](OC(CC)CC)[C@H](NC(C)=O)[C@@H](N)C1 [oseltamivir] | 3/10 | 0.74 days | 0.55 days | – | – | – | – | – |
| CCOC(=O)C1=C[C@@H](OC(CC)CC)[C@H](NC(C)=O)[C@@H](N)C1 [TAMIFLU®, oseltamivir phosphate] | – | – | – | 3/10 | failed to provide a significant benefit with regard to weight loss | – | – | – |
| CC(=O)N[C@H]1[C@H]([C@H](O)[C@H](O)CO)OC(C(=O)O)=C[C@@H]1N=C(N)N [zanamivir] | – | 0.98 days | 0.57 days | – | – | 1 to 2 h | about 2% | 7/20 |
